# Reference: PMC6886798, “Expression of myeloid Src-family kinases is associated with poor prognosis in AML and influences Flt3-ITD kinase inhibitor acquired resistance” (PLoS ONE, 2019)
# Columns and labels:
# Test in all cases: KINOMEscan
# Format in all cases: binding
# Conditions in all cases: 1.0 µM
# [1] = target: T1, PDGFRB (Homo sapiens, UniProt P09619)
# T1 construct: purchased Eurofins/DiscoverX KINOMEscan scanMAX
# Description: (§1) Kinase retention to the immobilized ligand is then measured using quantitative real-time PCR for each kinase-specific DNA barcode.
# [2] = target: T2, CSNK1G2 (Homo sapiens, UniProt P78368)
# T2 construct: purchased Eurofins/DiscoverX KINOMEscan scanMAX
# Description: as §1
# [3] = target: T3, CDKL2 (Homo sapiens, UniProt Q92772)
# T3 construct: purchased Eurofins/DiscoverX KINOMEscan scanMAX
# Description: as §1
# [4] = target: T4, SNRK (Homo sapiens, UniProt Q9NRH2)
# T4 construct: purchased Eurofins/DiscoverX KINOMEscan scanMAX
# Description: as §1
# [5] = target: T5, NIK (Homo sapiens, UniProt Q99558)
# T5 construct: purchased Eurofins/DiscoverX KINOMEscan scanMAX
# Description: as §1
# [6] = target: T6, MEK6 (Homo sapiens, UniProt P52564)
# T6 construct: purchased Eurofins/DiscoverX KINOMEscan scanMAX
# Description: as §1
# [7] = target: T7, RSK4(Kin.Dom.2-C-terminal) (Homo sapiens, UniProt Q9UK32)
# T7 construct: RSK4(Kin.Dom.2-C-terminal); purchased Eurofins/DiscoverX KINOMEscan scanMAX
# Description: as §1
# [8] = target: T8, SGK3 (Homo sapiens, UniProt Q96BR1)
# T8 construct: purchased Eurofins/DiscoverX KINOMEscan scanMAX
# Description: as §1
# [9] = target: T9, ACVR2B (Homo sapiens, UniProt Q13705)
# T9 construct: purchased Eurofins/DiscoverX KINOMEscan scanMAX
# Description: as §1
# [10] = target: T10, OSR1 (Homo sapiens, UniProt O95747)
# T10 construct: purchased Eurofins/DiscoverX KINOMEscan scanMAX
# Description: as §1
# [11] = target: T11, GRK1 (Homo sapiens, UniProt Q15835)
# T11 construct: purchased Eurofins/DiscoverX KINOMEscan scanMAX
# Description: as §1
# [12] = target: T12, RIOK3 (Homo sapiens, UniProt O14730)
# T12 construct: purchased Eurofins/DiscoverX KINOMEscan scanMAX
# Description: as §1
# [13] = target: T13, DCAMKL1 (Homo sapiens, UniProt O15075)
# T13 construct: purchased Eurofins/DiscoverX KINOMEscan scanMAX
# Description: as §1
# [14] = target: T14, YES (Homo sapiens, UniProt P07947)
# T14 construct: purchased Eurofins/DiscoverX (KINOMEscan scanMAX service)
# Description: as §1
# [15] = target: T15, JNK2 (Homo sapiens, UniProt P45984)
# T15 construct: purchased Eurofins/DiscoverX KINOMEscan scanMAX
# Description: as §1
# [16] = target: T16, NEK7 (Homo sapiens, UniProt Q8TDX7)
# T16 construct: purchased Eurofins/DiscoverX KINOMEscan scanMAX
# Description: as §1
# [17] = target: T17, MTOR (Homo sapiens, UniProt P42345)
# T17 construct: purchased Eurofins/DiscoverX KINOMEscan scanMAX
# Description: as §1
# [18] = target: T18, GSK3B (Homo sapiens, UniProt P49841)
# T18 construct: purchased Eurofins/DiscoverX KINOMEscan scanMAX
# Description: as §1
# [19] = target: T19, ERK2 (Homo sapiens, UniProt P28482)
# T19 construct: purchased Eurofins/DiscoverX KINOMEscan scanMAX
# Description: as §1
# [20] = target: T20, p38-gamma (Homo sapiens, UniProt P53778)
# T20 construct: purchased Eurofins/DiscoverX KINOMEscan scanMAX
# Description: as §1
# [21] = target: T21, ERBB4 (Homo sapiens, UniProt Q15303)
# T21 construct: purchased Eurofins/DiscoverX KINOMEscan scanMAX
# Description: as §1
# [22] = target: T22, HUNK (Homo sapiens, UniProt P57058)
# T22 construct: purchased Eurofins/DiscoverX KINOMEscan scanMAX
# Description: as §1
# [23] = target: T23, ALK(C1156Y) (Homo sapiens, UniProt Q9UM73, C1156Y)
# T23 construct: purchased Eurofins/DiscoverX KINOMEscan scanMAX
# Description: as §1
# [24] = target: T24, PIK3CB (Homo sapiens, UniProt P42338)
# T24 construct: purchased Eurofins/DiscoverX KINOMEscan scanMAX
# Description: as §1
# [25] = target: T25, IKK-alpha (Homo sapiens, UniProt O15111)
# T25 construct: purchased Eurofins/DiscoverX KINOMEscan scanMAX
# Description: as §1
# [26] = target: T26, EPHA2 (Homo sapiens, UniProt P29317)
# T26 construct: purchased Eurofins/DiscoverX KINOMEscan scanMAX
# Description: as §1
# [27] = target: T27, ZAP70 (Homo sapiens, UniProt P43403)
# T27 construct: purchased Eurofins/DiscoverX (KINOMEscan scanMAX service)
# Description: as §1
# [28] = target: T28, PIK3CG (Homo sapiens, UniProt P48736)
# T28 construct: purchased Eurofins/DiscoverX KINOMEscan scanMAX
# Description: as §1
# [29] = target: T29, CDK4 (Homo sapiens, UniProt P11802)
# T29 construct: purchased Eurofins/DiscoverX KINOMEscan scanMAX
# Description: as §1
# [30] = target: T30, VPS34 (Homo sapiens, UniProt Q8NEB9)
# T30 construct: DNA tag (qPCR barcode); purchased Eurofins/DiscoverX KINOMEscan scanMAX
# Description: as §1
# [31] = target: T31, CASK (Homo sapiens, UniProt O14936)
# T31 construct: purchased Eurofins/DiscoverX KINOMEscan scanMAX
# Description: as §1
# [32] = target: T32, TAOK2 (Homo sapiens, UniProt Q9UL54)
# T32 construct: purchased Eurofins/DiscoverX KINOMEscan scanMAX
# Description: as §1
# [33] = target: T33, TNK1 (Homo sapiens, UniProt Q13470)
# T33 construct: purchased Eurofins/DiscoverX KINOMEscan scanMAX
# Description: as §1
# [34] = target: T34, EPHB1 (Homo sapiens, UniProt P54762)
# T34 construct: purchased Eurofins/DiscoverX KINOMEscan scanMAX
# Description: as §1
# [35] = target: T35, JNK3 (Homo sapiens, UniProt P53779)
# T35 construct: purchased Eurofins/DiscoverX KINOMEscan scanMAX
# Description: as §1
# [36] = target: T36, DAPK3 (Homo sapiens, UniProt O43293)
# T36 construct: purchased Eurofins/DiscoverX KINOMEscan scanMAX
# Description: as §1
# [37] = target: T37, CSNK2A2 (Homo sapiens, UniProt P19784)
# T37 construct: purchased Eurofins/DiscoverX KINOMEscan scanMAX
# Description: as §1
# [38] = target: T38, KIT(L576P) (Homo sapiens, UniProt P10721, L576P)
# T38 construct: purchased Eurofins/DiscoverX KINOMEscan scanMAX
# Description: as §1
# [39] = target: T39, KIT(D816V) (Homo sapiens, UniProt P10721, D816V)
# T39 construct: purchased Eurofins/DiscoverX KINOMEscan scanMAX
# Description: as §1
# [40] = target: T40, FLT4 (Homo sapiens, UniProt P35916)
# T40 construct: purchased Eurofins/DiscoverX KINOMEscan scanMAX
# Description: as §1
# [41] = target: T41, MARK2 (Homo sapiens, UniProt Q7KZI7)
# T41 construct: purchased Eurofins/DiscoverX KINOMEscan scanMAX
# Description: as §1
# [42] = target: T42, PRKCH (Homo sapiens, UniProt P24723)
# T42 construct: purchased Eurofins/DiscoverX KINOMEscan scanMAX
# Description: as §1
# T7 sequence (Q9UK32 426-683 limits assumed): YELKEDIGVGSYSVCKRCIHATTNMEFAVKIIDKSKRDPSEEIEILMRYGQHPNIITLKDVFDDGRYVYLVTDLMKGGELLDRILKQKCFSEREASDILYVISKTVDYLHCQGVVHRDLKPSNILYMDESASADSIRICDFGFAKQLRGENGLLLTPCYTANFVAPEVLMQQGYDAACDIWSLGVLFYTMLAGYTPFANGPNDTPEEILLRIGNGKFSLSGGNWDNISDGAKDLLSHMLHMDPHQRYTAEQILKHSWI
# T14 sequence (P07947 whole entry): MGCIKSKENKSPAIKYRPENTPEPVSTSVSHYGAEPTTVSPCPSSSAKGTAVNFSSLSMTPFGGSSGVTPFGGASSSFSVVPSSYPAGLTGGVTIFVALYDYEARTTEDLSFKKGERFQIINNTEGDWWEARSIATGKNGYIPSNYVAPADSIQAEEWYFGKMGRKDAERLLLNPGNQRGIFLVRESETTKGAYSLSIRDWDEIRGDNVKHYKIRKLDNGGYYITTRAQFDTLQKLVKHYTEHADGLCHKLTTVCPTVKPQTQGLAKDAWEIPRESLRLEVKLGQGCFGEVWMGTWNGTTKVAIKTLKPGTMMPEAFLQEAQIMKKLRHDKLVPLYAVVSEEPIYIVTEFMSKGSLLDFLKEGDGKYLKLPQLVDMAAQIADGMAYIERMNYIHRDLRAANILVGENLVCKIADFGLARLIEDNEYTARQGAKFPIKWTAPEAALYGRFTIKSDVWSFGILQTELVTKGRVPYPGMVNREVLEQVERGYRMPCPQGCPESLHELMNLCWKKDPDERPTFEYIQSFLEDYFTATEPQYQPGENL
# T40 sequence (P35916 25-1363): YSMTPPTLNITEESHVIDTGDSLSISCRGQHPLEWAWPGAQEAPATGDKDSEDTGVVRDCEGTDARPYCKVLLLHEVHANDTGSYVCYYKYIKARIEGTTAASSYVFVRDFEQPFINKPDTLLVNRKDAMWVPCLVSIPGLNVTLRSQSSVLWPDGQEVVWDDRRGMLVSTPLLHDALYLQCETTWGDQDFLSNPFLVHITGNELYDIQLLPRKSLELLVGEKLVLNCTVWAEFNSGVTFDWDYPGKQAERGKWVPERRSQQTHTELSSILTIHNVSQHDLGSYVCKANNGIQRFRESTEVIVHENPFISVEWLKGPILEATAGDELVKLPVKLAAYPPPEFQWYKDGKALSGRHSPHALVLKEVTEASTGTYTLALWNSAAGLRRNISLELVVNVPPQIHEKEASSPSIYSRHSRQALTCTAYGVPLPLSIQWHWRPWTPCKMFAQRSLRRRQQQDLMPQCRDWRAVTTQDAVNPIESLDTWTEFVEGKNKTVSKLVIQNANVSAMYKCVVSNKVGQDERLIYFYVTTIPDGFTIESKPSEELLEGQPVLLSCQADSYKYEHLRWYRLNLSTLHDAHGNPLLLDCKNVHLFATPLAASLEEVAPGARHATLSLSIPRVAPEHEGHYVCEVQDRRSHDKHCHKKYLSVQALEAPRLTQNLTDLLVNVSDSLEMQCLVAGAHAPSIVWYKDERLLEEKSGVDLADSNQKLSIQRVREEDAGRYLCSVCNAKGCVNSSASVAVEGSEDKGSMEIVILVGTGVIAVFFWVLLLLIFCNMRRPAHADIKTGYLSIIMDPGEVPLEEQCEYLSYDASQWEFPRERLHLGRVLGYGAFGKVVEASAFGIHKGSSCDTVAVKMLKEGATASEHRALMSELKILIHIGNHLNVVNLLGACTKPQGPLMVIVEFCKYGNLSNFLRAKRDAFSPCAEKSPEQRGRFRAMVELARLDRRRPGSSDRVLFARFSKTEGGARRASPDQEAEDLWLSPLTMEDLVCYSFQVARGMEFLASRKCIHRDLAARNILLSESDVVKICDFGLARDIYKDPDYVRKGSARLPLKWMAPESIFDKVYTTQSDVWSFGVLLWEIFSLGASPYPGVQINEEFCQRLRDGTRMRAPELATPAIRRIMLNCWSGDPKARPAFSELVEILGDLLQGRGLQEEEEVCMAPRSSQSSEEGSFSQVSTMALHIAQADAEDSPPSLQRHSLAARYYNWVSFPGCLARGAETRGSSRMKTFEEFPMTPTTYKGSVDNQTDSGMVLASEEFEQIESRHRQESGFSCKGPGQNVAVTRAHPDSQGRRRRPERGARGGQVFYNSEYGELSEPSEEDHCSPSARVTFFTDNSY
# T33 sequence (Q13470 whole entry): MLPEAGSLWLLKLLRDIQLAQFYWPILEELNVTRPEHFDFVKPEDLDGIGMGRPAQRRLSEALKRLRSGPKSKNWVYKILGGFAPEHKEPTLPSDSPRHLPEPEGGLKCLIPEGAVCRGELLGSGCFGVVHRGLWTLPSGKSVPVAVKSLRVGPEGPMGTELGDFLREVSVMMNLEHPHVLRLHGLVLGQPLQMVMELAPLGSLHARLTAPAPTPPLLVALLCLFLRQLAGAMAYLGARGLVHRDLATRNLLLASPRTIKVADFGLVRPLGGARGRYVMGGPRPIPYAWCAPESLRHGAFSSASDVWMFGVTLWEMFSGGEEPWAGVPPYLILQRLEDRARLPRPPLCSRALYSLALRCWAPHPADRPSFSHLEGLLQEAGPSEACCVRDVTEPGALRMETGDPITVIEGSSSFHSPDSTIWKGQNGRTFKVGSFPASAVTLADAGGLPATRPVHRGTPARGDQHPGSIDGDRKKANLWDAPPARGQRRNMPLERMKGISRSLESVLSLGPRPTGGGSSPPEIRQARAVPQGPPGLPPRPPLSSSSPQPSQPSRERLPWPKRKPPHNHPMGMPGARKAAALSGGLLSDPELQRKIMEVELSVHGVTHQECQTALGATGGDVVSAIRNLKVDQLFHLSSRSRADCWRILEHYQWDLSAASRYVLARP
# T18 sequence (P49841 whole entry): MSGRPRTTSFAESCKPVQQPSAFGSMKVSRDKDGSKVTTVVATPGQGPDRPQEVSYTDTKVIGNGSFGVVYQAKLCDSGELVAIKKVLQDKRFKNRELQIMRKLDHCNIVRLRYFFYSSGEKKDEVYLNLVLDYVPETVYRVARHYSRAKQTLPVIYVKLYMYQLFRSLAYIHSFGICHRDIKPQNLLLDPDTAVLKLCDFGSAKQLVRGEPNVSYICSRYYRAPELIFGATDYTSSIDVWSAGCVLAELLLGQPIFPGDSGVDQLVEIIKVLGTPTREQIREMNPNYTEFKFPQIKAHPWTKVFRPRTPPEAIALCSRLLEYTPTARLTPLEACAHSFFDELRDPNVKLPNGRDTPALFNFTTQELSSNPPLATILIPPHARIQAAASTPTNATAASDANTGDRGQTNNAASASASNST
# T41 sequence (Q7KZI7 whole entry): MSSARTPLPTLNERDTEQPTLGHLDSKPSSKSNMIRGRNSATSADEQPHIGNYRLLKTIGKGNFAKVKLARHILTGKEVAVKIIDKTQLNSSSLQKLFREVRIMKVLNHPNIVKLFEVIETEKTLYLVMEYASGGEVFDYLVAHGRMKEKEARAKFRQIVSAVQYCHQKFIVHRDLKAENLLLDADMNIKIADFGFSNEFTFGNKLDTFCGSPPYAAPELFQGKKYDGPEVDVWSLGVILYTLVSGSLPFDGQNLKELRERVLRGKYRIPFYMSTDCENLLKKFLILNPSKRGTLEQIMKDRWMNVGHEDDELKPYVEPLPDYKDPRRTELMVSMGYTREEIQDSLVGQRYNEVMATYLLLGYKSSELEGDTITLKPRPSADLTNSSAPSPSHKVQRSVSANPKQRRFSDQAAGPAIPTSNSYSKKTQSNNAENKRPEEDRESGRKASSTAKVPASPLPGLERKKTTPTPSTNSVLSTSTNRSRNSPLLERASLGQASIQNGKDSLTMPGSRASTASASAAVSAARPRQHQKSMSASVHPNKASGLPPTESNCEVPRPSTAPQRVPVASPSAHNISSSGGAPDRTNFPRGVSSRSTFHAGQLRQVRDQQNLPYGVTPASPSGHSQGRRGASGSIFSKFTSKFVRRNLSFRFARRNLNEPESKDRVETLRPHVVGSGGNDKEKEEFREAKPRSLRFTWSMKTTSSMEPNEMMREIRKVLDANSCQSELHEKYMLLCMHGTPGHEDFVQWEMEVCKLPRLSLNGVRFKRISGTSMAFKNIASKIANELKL
# T27 sequence (P43403 whole entry): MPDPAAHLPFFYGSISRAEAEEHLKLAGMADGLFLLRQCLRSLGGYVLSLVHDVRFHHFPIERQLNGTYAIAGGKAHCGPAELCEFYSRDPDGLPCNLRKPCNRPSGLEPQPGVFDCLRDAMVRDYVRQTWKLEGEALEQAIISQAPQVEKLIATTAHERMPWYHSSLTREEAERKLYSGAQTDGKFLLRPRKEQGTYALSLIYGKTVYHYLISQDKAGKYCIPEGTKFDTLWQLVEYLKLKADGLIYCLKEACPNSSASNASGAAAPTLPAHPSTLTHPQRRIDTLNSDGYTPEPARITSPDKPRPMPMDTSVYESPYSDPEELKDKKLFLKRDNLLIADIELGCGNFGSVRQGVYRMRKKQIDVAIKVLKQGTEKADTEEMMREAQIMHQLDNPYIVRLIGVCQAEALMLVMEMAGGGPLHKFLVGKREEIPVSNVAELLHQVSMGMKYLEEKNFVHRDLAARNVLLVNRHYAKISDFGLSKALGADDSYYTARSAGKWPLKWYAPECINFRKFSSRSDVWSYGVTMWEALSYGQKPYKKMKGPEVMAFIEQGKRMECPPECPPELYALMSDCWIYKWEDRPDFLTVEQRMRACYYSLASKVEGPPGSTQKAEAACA
# T2 sequence (P78368 whole entry): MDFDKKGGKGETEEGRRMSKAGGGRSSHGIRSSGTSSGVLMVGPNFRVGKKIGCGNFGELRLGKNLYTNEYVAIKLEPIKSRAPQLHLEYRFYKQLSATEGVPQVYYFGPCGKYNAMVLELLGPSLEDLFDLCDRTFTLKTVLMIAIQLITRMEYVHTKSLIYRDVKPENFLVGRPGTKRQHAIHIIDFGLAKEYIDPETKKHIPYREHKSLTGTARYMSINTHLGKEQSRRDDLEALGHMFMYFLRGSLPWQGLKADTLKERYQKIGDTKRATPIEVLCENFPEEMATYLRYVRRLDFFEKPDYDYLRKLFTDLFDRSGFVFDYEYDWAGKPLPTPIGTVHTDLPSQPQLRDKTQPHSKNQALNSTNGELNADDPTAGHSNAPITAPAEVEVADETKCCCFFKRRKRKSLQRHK
structure (smiles),measurement,setting,value
CN1CCN(C2CCC(n3cc(-c4ccc(Oc5ccccc5)cc4)c4c(N)ncnc43)CC2)CC1 (stereo not drawn) [A-419259],% Control,[1],0%
same,% Control,[2],84%
same,% Control,[3],70%
same,% Control,[4],94%
same,% Control,[5],100%
same,% Control,[6],98%
same,% Control,[7],94%
same,% Control,[8],77%
same,% Control,[9],100%
same,% Control,[10],100%
same,% Control,[11],100%
same,% Control,[12],64%
same,% Control,[13],43%
same,% Control,[14],0%
same,% Control,[15],94%
same,% Control,[16],91%
same,% Control,[17],90%
same,% Control,[18],95%
same,% Control,[19],77%
same,% Control,[20],100%
same,% Control,[21],0%
same,% Control,[22],100%
same,% Control,[23],21%
same,% Control,[24],64%
same,% Control,[25],90%
same,% Control,[26],100%
same,% Control,[27],100%
same,% Control,[28],61%
same,% Control,[29],91%
same,% Control,[30],63%
same,% Control,[31],67%
same,% Control,[32],85%
same,% Control,[33],0%
same,% Control,[34],96%
same,% Control,[35],99%
same,% Control,[36],100%
same,% Control,[37],66%
same,% Control,[38],0%
same,% Control,[39],70%
same,% Control,[40],19%
same,% Control,[41],82%
same,% Control,[42],87%
